According to patent publication US11851692B2, “Method for preparing an antimycin compound produced by Streptomyces sp.4-7” (priority 2022, dated 2023):
Converted amounts (≈) assume the structure as drawn.

Columns and labels:
[1] = Oxford Cup method antifungal test, Botrytis cinerea; type: cell-based, Botrytis cinerea (CGMCC3.3789); settings: Staphylococcus, CGMCC3, 120 h; Oxford Cup method, PDA plates, 28° C., 5 days; strain CGMCC 3.3789; read-out: minimum inhibitory concentration (MIC)
Method: (§1) Preparation of the test sample solution: The test sample was the pure compound I separated and purified in the above Example 1. An appropriate amount of sample was accurately weighed and mixed with DMSO to obtain a solution of the required concentration for testing the antifungal activity. The indicator bacteria used in this experiment were Botrytis cinerea (CGMCC3.3789) and Penicillium citrinum (ATCC1109).
(§2) Oxford Cup method for antifungal test: 100 μL of spore suspension was spread evenly on PDA plates, and Oxford cups were placed in the center of the plates. 100 μL of compound solutions of different concentrations were added into the Oxford cups separately, the concentrations of the compound solutions were 32 μg/mL, 16 μg/mL, 8 μg/mL, 4 μg/mL, 2 μg/mL, 1 μg/mL, and 0.5 μg/mL. DMSO was used as a negative control, and prochloraz of the same concentration was used as a positive control. After incubation at 28° C. for 5 days, the growth of fungi was observed. Four culture plates were set up for each treatment, and the whole experiment was repeated three times.

[2] = tested on: Staphylococcus griseus (CGMCC 3.3789); experiment: as above; type: cell-based, Botrytis cinerea (CGMCC3.3789); settings: result in words
Method: as §1, §2

[3] = tested on: Penicillium oryzae (ATCC 1109); experiment: Oxford Cup method antifungal test, Penicillium citrinum; type: cell-based, Penicillium citrinum (ATCC1109)
Method: as §1, §2

In the case of `CC[C@@H](C)C[C@H]1C(=O)O[C@H](C)[C@H](NC(=O)c2cccc(NC=O)c2O)C(=O)O[C@@H](C)[C@@H]1CC(=O)C(C)C` [Compound I, Antimycin I], the MIC [1] is reported as 2 µg/mL (≈ 3.86 µM), the “resistance activity against Botrytis cinerea (antifungal activity screening)” value [2] is reported as “significant resistance activity” and the MIC ([3]; Penicillium, ATCC1109, 120 h, Oxford Cup method, PDA plates, 28° C., 5 days, strain ATCC 1109, read-out: minimum inhibitory concentration (MIC)) is reported as 4 µg/mL (≈ 7.71 µM). The “resistance activity against Penicillium citrinum (antifungal activity screening)” value ([3]; result in words) was “significant resistance activity”.
